Columns and labels:
[1] = test system: barnyardgrass (Echinochloa crus-galli); experiment: Test A preemergence, visual injury rating 0-100 (0 no effect, 100 complete control); type: in vivo; conditions: for Barnyardgrass plant response rating: 0 to 100 scale
[2] = test system: ducksalad (Heteranthera limosa); experiment: Test B flooded paddy test, visual rating 0-100; conditions: Flood, 250 g ai/ha, applied to paddy water, rated after 13 to 15 days
rice (Oryza sativa) = experiment: Test B flooded paddy test, visual rating 0-100 (0 no effect, 100 complete control); conditions: Flood, 250 g ai/ha, applied to paddy water, rated after 13 to 15 days
[3] = test system: foxtail, green (green foxtail, Setaria viridis); experiment: Test A preemergence, visual injury rating 0-100; type: in vivo; conditions: for Foxtail, Green plant response rating (0 to 100 scale): 125 g ai/ha; for Foxtail, Green plant response rating: 500 g ai/ha, 0 to 100 scale
[4] = test system: ragweed (common ragweed, Ambrosia elatior); experiment: Test A preemergence, visual injury rating 0-100; type: in vivo; conditions: for Ragweed plant response rating: 0 to 100 scale
[5] = test system: ryegrass, Italian (Italian ryegrass, Lolium multiflorum); experiment: Test A preemergence, visual injury rating 0-100; type: in vivo; conditions: for Ryegrass, Italian plant response rating: 0 to 100 scale
[6] = test system: pigweed (Amaranthus retroflexus); experiment: Test A preemergence, visual injury rating 0-100; type: in vivo; conditions: for Pigweed plant response rating: 0 to 100 scale
kochia (Kochia scoparia) [7] = experiment: Test A preemergence, visual injury rating 0-100; type: in vivo; conditions: for Kochia plant response rating: 0 to 100 scale
[8] = test system: barnyardgrass (Echinochloa crus-galli); experiment: Test B flooded paddy test, visual rating 0-100; conditions: Flood, 250 g ai/ha, applied to paddy water, rated after 13 to 15 days
[9] = test system: foxtail, green (green foxtail, Setaria viridis); experiment: Test A postemergence, visual injury rating 0-100; type: in vivo; conditions: 0 to 100 scale
[10] = test system: ragweed (common ragweed, Ambrosia elatior); experiment: Test A postemergence, visual injury rating 0-100; type: in vivo; conditions: 0 to 100 scale
corn (Zea mays) = experiment: Test A postemergence, visual injury rating 0-100; type: in vivo; conditions: 0 to 100 scale
[11] = test system: ryegrass, Italian (Italian ryegrass, Lolium multiflorum); experiment: Test A postemergence, visual injury rating 0-100; type: in vivo; conditions: 0 to 100 scale
[12] = test system: wheat (Triticum aestivum); experiment: Test A postemergence, visual injury rating 0-100; type: in vivo; conditions: 0 to 100 scale
[13] = test system: pigweed (Amaranthus retroflexus); experiment: Test A postemergence, visual injury rating 0-100; type: in vivo; conditions: 0 to 100 scale
[14] = test system: blackgrass (Alopecurus myosuroides); experiment: Test A postemergence, visual injury rating 0-100; type: in vivo; conditions: 0 to 100 scale
[15] = test system: barnyardgrass (Echinochloa crus-galli); experiment: Test A postemergence, visual injury rating 0-100; type: in vivo; conditions: 0 to 100 scale
kochia (Kochia scoparia) [16] = experiment: Test A postemergence, visual injury rating 0-100; type: in vivo; conditions: 0 to 100 scale
[17] = test system: foxtail, giant (giant foxtail, Setaria faberii); experiment: Test A preemergence, visual injury rating 0-100; type: in vivo
[18] = test system: foxtail, giant (giant foxtail, Setaria faberii); experiment: Test A postemergence, visual injury rating 0-100; type: in vivo; conditions: 0 to 100 scale
[19] = test system: galium (catchweed bedstraw, Galium aparine); experiment: Test A postemergence, visual injury rating 0-100; type: in vivo; conditions: 0 to 100 scale

SMILES	Barnyardgrass plant response rating (0 to 100 scale) ([1]; 125 g ai/ha)	Ducksalad plant response rating (0 to 100 scale) [2]	Rice plant response rating (0 to 100 scale) (rice (Oryza sativa))	Ragweed plant response rating (0 to 100 scale) ([4]; 125 g ai/ha)	Ryegrass, Italian plant response rating (0 to 100 scale) ([5]; 125 g ai/ha)	Pigweed plant response rating (0 to 100 scale) ([6]; 125 g ai/ha)	Kochia plant response rating (0 to 100 scale) (kochia (Kochia scoparia) [7]; 125 g ai/ha)	Barnyardgrass plant response rating (0 to 100 scale) [8]	Ragweed plant response rating ([10]; 125 g ai/ha)	Ragweed plant response rating ([10]; 500 g ai/ha)	Corn plant response rating (corn (Zea mays); 125 g ai/ha)	Corn plant response rating (corn (Zea mays); 500 g ai/ha)	Ryegrass, Italian plant response rating ([11]; 125 g ai/ha)	Ryegrass, Italian plant response rating ([11]; 500 g ai/ha)	Wheat plant response rating ([12]; 125 g ai/ha)	Wheat plant response rating ([12]; 500 g ai/ha)	Pigweed plant response rating ([13]; 125 g ai/ha)	Pigweed plant response rating ([13]; 500 g ai/ha)	Blackgrass plant response rating ([14]; 125 g ai/ha)	Blackgrass plant response rating ([14]; 500 g ai/ha)	also measured
CC1=[N+]([O-])C(C(=O)Nc2cccc(F)c2F)C(c2ccc(C#N)cc2)C1 (racemic) [Compound 22]	20	40	30	70	0	0	0	0	0	0	0	0	0	0	0	0	0	20	0	30	Barnyardgrass plant response rating ([1]; 500 g ai/ha): 80; Foxtail, Green plant response rating (0 to 100 scale) [3]: 40; Foxtail, Green plant response rating [3]: 70; Ragweed plant response rating ([4]; 500 g ai/ha): 30; Ryegrass, Italian plant response rating ([5]; 500 g ai/ha): 0; Pigweed plant response rating ([6]; 500 g ai/ha): 20; Kochia plant response rating (kochia (Kochia scoparia) [7]; 500 g ai/ha): 20; Foxtail, Green plant response rating ([9]; 125 g ai/ha): 0; Foxtail, Green plant response rating ([9]; 500 g ai/ha): 50; Barnyardgrass plant response rating ([15]; 125 g ai/ha): 0; Barnyardgrass plant response rating ([15]; 500 g ai/ha): 60; Kochia plant response rating (kochia (Kochia scoparia) [16]; 125 g ai/ha): 0; Kochia plant response rating (kochia (Kochia scoparia) [16]; 500 g ai/ha): 30
CC1=[N+]([O-])C(C(=O)Nc2cccc(F)c2F)C(c2cccc(C#N)c2)C1 (racemic) [Compound 23]	60	60	0	50	0	0	20	50	0	0	0	0	0	20	20	50	0	0	0	0	Barnyardgrass plant response rating ([1]; 500 g ai/ha): 90; Foxtail, Green plant response rating (0 to 100 scale) [3]: 80; Foxtail, Green plant response rating [3]: 90; Ragweed plant response rating ([4]; 500 g ai/ha): 80; Ryegrass, Italian plant response rating ([5]; 500 g ai/ha): 0; Pigweed plant response rating ([6]; 500 g ai/ha): 0; Kochia plant response rating (kochia (Kochia scoparia) [7]; 500 g ai/ha): 50; Foxtail, Green plant response rating ([9]; 125 g ai/ha): 30; Foxtail, Green plant response rating ([9]; 500 g ai/ha): 80; Barnyardgrass plant response rating ([15]; 125 g ai/ha): 70; Barnyardgrass plant response rating ([15]; 500 g ai/ha): 80; Kochia plant response rating (kochia (Kochia scoparia) [16]; 125 g ai/ha): 0; Kochia plant response rating (kochia (Kochia scoparia) [16]; 500 g ai/ha): 20
CC1=[N+]([O-])C(C(=O)Nc2cccc(F)c2F)C(c2ccc(C)c(C)c2)C1 (racemic) [Compound 24]	90	85	0	60	40	20	40	70	20	50	50	90	90	80	50	90	30	60	20	60	Barnyardgrass plant response rating ([1]; 500 g ai/ha): 90; Foxtail, Green plant response rating (0 to 100 scale) [3]: 90; Foxtail, Green plant response rating [3]: 90; Ragweed plant response rating ([4]; 500 g ai/ha): 80; Ryegrass, Italian plant response rating ([5]; 500 g ai/ha): 70; Pigweed plant response rating ([6]; 500 g ai/ha): 50; Kochia plant response rating (kochia (Kochia scoparia) [7]; 500 g ai/ha): 90; Foxtail, Green plant response rating ([9]; 125 g ai/ha): 80; Foxtail, Green plant response rating ([9]; 500 g ai/ha): 90; Barnyardgrass plant response rating ([15]; 125 g ai/ha): 90; Barnyardgrass plant response rating ([15]; 500 g ai/ha): 90; Kochia plant response rating (kochia (Kochia scoparia) [16]; 125 g ai/ha): 50; Kochia plant response rating (kochia (Kochia scoparia) [16]; 500 g ai/ha): 70
COc1cc(C2CC(C)=[N+]([O-])C2C(=O)Nc2cccc(F)c2F)ccc1C(F)(F)F (stereo not shown) [Compound 100]	90	0	0	0	0	0	40	0	20	70	30	70	0	70	20	50	0	40	30	70	Barnyardgrass plant response rating (0 to 100 scale) ([1]; 500 g ai/ha): 90; Ragweed plant response rating (0 to 100 scale) ([4]; 500 g ai/ha): 80; Ryegrass, Italian plant response rating (0 to 100 scale) ([5]; 500 g ai/ha): 90; Pigweed plant response rating (0 to 100 scale) ([6]; 500 g ai/ha): 60; Foxtail, Giant plant response rating (0 to 100 scale) ([17]; 125 g ai/ha): 90; Foxtail, Giant plant response rating (0 to 100 scale) ([17]; 500 g ai/ha): 90; Kochia plant response rating (0 to 100 scale) (kochia (Kochia scoparia) [7]; 500 g ai/ha): 80; Foxtail, Giant plant response rating ([18]; 125 g ai/ha): 60; Foxtail, Giant plant response rating ([18]; 500 g ai/ha): 90; Galium plant response rating ([19]; 125 g ai/ha): 70; Galium plant response rating ([19]; 500 g ai/ha): 80; Barnyardgrass plant response rating ([15]; 125 g ai/ha): 70; Barnyardgrass plant response rating ([15]; 500 g ai/ha): 90; Kochia plant response rating (kochia (Kochia scoparia) [16]; 125 g ai/ha): 20; Kochia plant response rating (kochia (Kochia scoparia) [16]; 500 g ai/ha): 70
CC1=[N+]([O-])C(C(=O)Nc2cccc(F)c2F)C(c2ccc(C(F)(F)F)cc2F)C1 (stereo not shown) [Compound 101]	90	90	0	10	40	70	30	50	30	60	20	70	50	50	10	60	0	60	70	80	Barnyardgrass plant response rating (0 to 100 scale) ([1]; 500 g ai/ha): 90; Ragweed plant response rating (0 to 100 scale) ([4]; 500 g ai/ha): 90; Ryegrass, Italian plant response rating (0 to 100 scale) ([5]; 500 g ai/ha): 90; Pigweed plant response rating (0 to 100 scale) ([6]; 500 g ai/ha): 90; Foxtail, Giant plant response rating (0 to 100 scale) ([17]; 125 g ai/ha): 90; Foxtail, Giant plant response rating (0 to 100 scale) ([17]; 500 g ai/ha): 90; Kochia plant response rating (0 to 100 scale) (kochia (Kochia scoparia) [7]; 500 g ai/ha): 90; Foxtail, Giant plant response rating ([18]; 125 g ai/ha): 80; Foxtail, Giant plant response rating ([18]; 500 g ai/ha): 90; Galium plant response rating ([19]; 125 g ai/ha): 70; Galium plant response rating ([19]; 500 g ai/ha): 80; Barnyardgrass plant response rating ([15]; 125 g ai/ha): 50; Barnyardgrass plant response rating ([15]; 500 g ai/ha): 90; Kochia plant response rating (kochia (Kochia scoparia) [16]; 125 g ai/ha): 30; Kochia plant response rating (kochia (Kochia scoparia) [16]; 500 g ai/ha): 60

From patent US11498899B2, “Nitrone herbicides” (FMC Corporation, priority 2016, dated 2022)
